Data: the NIST ThermoML archive (doi:10.1021/je201080c)

Key:
[1] = refractive index (Na D-line) (dimensionless); details: 101.33 kPa, Liquid, Standard Abbe refractometry
[2] = for viscosity / mass density: 101.33 kPa, Liquid; for viscosity: Surface Light Scattering; for mass density: Vibrating tube method; for surface tension liquid-gas: Pendant drop shape

CCn1cc[n+](C)c1.N#C[B-](C#N)(C#N)C#N [1-ethyl-3-methylimidazolium tetracyanoborate]
Details	mass density, [2] [kg/m3]	refractive index, [1]	surface tension liquid-gas, [2] [mN/m]	viscosity, [2] [mPa·s]
283.15 K	1048.33	1.4533	–	37.06
288.15 K	1044.31	–	–	27.75
293.15 K	1040.31	1.4499	–	21.79
297.04 K	–	–	47.09	–
298.15 K	1036.34	–	–	–
303.15 K	1032.4	1.4465	–	14.65
308.15 K	1028.48	–	–	–
313.15 K	1024.59	1.4432	43.29	10.09
318.15 K	1020.72	–	–	–
323.15 K	1016.87	–	41.6	7.61
328.15 K	1013.06	–	–	–
333.15 K	1009.26	–	39.53	5.77
338.15 K	1005.49	–	–	–
343.15 K	1001.74	–	38.33	4.67
348.15 K	998.01	–	–	–
353.15 K	994.28	–	36.52	3.7
358.15 K	990.59	–	–	–
363.15 K	986.92	–	35.8	3.16
